The target of assay [1] is T1, Upf1p-eRF3 interaction (Saccharomyces cerevisiae, UniProt P30771).
T1 construct: FLAG (N); made in house; host or cells: GST-eRF3: E. coli BL21(DE3) pLysS with pGEX2T-SUP35
T1 sequence (P30771 1-971): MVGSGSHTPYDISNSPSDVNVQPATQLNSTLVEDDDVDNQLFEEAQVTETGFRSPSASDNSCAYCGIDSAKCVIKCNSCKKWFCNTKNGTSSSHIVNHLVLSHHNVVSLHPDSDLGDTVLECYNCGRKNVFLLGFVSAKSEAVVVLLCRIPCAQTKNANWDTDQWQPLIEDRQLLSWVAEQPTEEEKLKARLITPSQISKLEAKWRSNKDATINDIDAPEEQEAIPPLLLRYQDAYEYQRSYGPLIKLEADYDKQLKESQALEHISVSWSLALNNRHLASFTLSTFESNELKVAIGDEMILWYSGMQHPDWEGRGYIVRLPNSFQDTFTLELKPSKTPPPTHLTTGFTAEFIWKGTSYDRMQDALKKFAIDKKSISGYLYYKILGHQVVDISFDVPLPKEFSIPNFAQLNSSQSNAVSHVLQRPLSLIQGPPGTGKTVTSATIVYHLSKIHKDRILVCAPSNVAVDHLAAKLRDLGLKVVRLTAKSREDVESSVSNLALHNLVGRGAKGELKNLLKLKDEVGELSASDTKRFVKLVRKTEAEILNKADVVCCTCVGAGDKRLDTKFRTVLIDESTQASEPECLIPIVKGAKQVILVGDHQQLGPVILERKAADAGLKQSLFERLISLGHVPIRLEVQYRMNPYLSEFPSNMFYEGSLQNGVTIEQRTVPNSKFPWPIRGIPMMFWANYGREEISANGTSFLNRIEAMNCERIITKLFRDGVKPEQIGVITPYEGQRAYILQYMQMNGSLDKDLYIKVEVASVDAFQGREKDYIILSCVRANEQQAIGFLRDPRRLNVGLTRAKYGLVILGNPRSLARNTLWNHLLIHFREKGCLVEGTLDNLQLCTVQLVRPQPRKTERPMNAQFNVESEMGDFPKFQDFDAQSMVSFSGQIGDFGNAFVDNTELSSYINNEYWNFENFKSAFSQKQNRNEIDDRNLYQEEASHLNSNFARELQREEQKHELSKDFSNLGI
Briefly: GST-eRF3 pull-down of purified FLAG-Upf1p with immunoblotting. The assay is classed as binding, yeast. The conditions noted are these: 1 mM ATP, 1 mM GTP, or 100 μg/ml poly(U) RNA. How it is done:
(§1) FIGS. 1A-1B. The yeast Upf1 protein interacts specifically with the peptidyl release factors. (1A) GST-eRF1 or GST-eRF3 […] proteins bind specifically to Upf1p in a yeast extract. Cytoplasmic extracts from a yeast strain BJ3505 transformed with either pG-1 (vector) or pG-1FLAGUPF1 (Flag-Upf1p) were prepared in IBTB and incubated with 30 μl GST, GST-eRF1 or GST-eRF3 sepharose-protein complexes. The sepharose-protein complexes were washed 2 times in IBTB (see materials and methods), resuspended in SDS-PAGE loading buffer, separated on an 8% SDS-PAGE gel and immunoblotted using anti-FLAG antibody. (1B) Upf1p interacts directly with both eRF1 and eRF3. Upf1p was purified as described previously (Czaplinski et al. 1995). 200 ng of Upf1p was added to 10 μl of GST, GST-eRF1 or GST-eRF3 sepharose-protein complexes in a total reaction volume of 200 μl in IBTB supplemented with KCl to the final concentration indicated above each lane. After 1 hour at 4° C. sepharose-protein complexes were washed for 3 minutes with 1 ml of IBTB supplemented with KCl to the final concentration indicated above each lane. The purified sepharose-protein complexes were resuspended in SDS-PAGE loading buffer and separated on a 7.5% SDS-PAGE gel and immunoblotted as in (A).
(§2) FIGS. 3A-3B. eRF3 and RNA compete for binding to Upf1p. (3A) Poly(U) RNA prevents Upf1p from binding to eRF3. Reaction mixtures were prepared as described in FIG. 1B, except that binding was performed in TBSTB (TBST with 100 μg/ml BSA) and reaction mixtures contained 1 mM ATP, 1 mM GTP, or 100 μg/ml poly(U) RNA as indicated above each lane. The reaction mixtures were mixed for 1 hour at 4° C. Following mixing, the complexes were washed as in FIG. 1B with TBSTB containing 1 mM ATP, 1 mM GTP, or 100 μg/ml poly(U) RNA as indicated above each lane. […]
(§3) Further, purified Flag-Upf1p with poly(U) RNA was incubated in the presence or absence of ATP. Following incubation, GST-eRF3 was added to the reaction mixtures and the Upf1-eRF3 interaction was monitored by immunoblotting analysis as before.

The test system of assay [2] is isogenic wild-type and upf3Δ strains. Briefly: Paromomycin sensitivity, zone of growth inhibition around a disc on a lawn of cells. The assay is classed as cell-based, Saccharomyces cerevisiae. How it is done:
FIG. 11. Paromomycin sensitivity was monitored in isogenic wild-type and upf3Δ strains by placing a disc containing 1 mg of paromomycin onto a lawn of cells and determining the zone of growth inhibition around the disc.
Paromomycin sensitivity was monitored in isogenic wild-type and upf3Δ strains by placing a disc containing 1 mg of paromomycin onto a lawn of cells and determining the zone of growth inhibition around the disc (FIG. 11).

The test system of assay [3] is −1 ribosomal frameshifting. Briefly: β-galactosidase assay of −1 ribosomal frameshifting in the presence of paromomycin. The assay is classed as cell-based, Saccharomyces cerevisiae. Here is the method: Cloning of UPF3: The strategy used to clone the UPF3 gene was the same that was used to clone UPF2 (Cui, Y, K. W. Hagan, S. Zhang, and Peltz, S. W. (1995)). […] Killer assays, frameshifting assays and extraction and analysis of total nucleic acids: The killer assay was carried out as previously described (Dinman, J. D., and Wickner, R. B. (1992)) by replica plating colonies onto 4.7 MB plates newly seeded with a lawn of 5×47 killer indicator cells (0.5 ml of a suspension at 1 unit of optical density at 550 nm per ml per plate). After 2 days at 20° C., killer activity was observed as a zone of growth inhibition around the killer colonies. To quantitate loss of killer activity, colonies that had been identified as killer^+ were re-streaked for single colonies and the percentage of killer^+ colonies were determined. The efficiencies of −1 frameshifting were determined as previously described (Cui, Y. Dinman, J. D., and Peltz, S. W. (1996); Dinman, J. D., Ruiz-Echevarria, M. J., Czaplinski, K. and Peltz, S. W. (1 997b)) using the 0-frame control (pTI25) and −1 reporter (pF8) plasmids. […]
The effect of paromomycin on −1 ribosomal frameshifting was analyzed further by β-galactosidase assay using plasmids pF8 (−1 frameshift reporter construct) or pTI25 (zero frame control) in isogenic wild-type and upf3Δ strains. […]

Assay [4] has as its target T2, Upf1p-eRF1 interaction (Saccharomyces cerevisiae, UniProt P30771, K436A).
T2 construct: FLAG (N); made in house; host or cells: GST-eRF1: E. coli BL21(DE3) pLysS with pGEX2T-SUP45
The assay is described as follows: GST-eRF1 pull-down of purified FLAG-Upf1p with immunoblotting. The assay is classed as binding, yeast. The conditions noted are these: GST-eRF1, various KCl concentrations. Here is the method:
as §1, with “After 1 hour at 4° C. sepharose-protein complexes were washed for 3 minutes with 1 ml of IBTB supplemented with KCl to the final concentration indicated above each lane. The purified sepharose-protein complexes were resuspended in SDS-PAGE loading buffer and separated on a 7.5% SDS-PAGE gel and immunoblotted as in (A).” left out
Previous results have shown that strains harboring mutations in the conserved lysine residue in position 436 of the Upf1p (K436) result in stabilization of nonsense-containing mRNAs and a nonsense suppression phenotype (Weng et al., 1996a). […] Reaction mixtures containing the K436A form of Upf1p, GST-eRF1 and various KCl concentrations were prepared,and their interaction was monitored as described above.

Assay [5] concerns the target T3, Upf1p-eRF3 interaction (Saccharomyces cerevisiae, UniProt P30771, K436A).
T3 construct: FLAG (N); made in house; host or cells: GST-eRF3: E. coli BL21(DE3) pLysS with pGEX2T-SUP35
Briefly: GST-eRF3 pull-down of purified FLAG-Upf1p with immunoblotting. The assay is classed as binding, yeast. The conditions noted are these: GST-eRF3. Here is the method:
as §1, §2, §3

Entries after “also recorded” stand apart in the source; their conditions may differ.

The text below walks through data of patent publication US6486305B1, “METHOD OF MODULATING THE EFFICIENCY OF TRANSLATION TERMINATION AND DEGRADATION OF ABERRANT MRNA INVOLVING A SURVEILLANCE COMPLEX COMPRISING HUMAN UPF1P, EUCARYOTIC RELEASE FACTOR 1 AND EUCARYOTIC RELEASE FACTOR 3” (priority 1998, dated 2002).

Consider `Nc1nc2c(ncn2[C@@H]2O[C@H](COP(=O)(O)OP(=O)(O)OP(=O)(O)O)[C@@H](O)[C@H]2O)c(=O)[nH]1` [GTP], for which the “Effect on interaction between Upf1p and eRF3” value in assay [1] is “not affected”.

Turning to `Nc1ncnc2c1ncn2[C@@H]1O[C@H](COP(=O)(O)OP(=O)(O)OP(=O)(O)O)[C@@H](O)[C@H]1O` [ATP], in assay [1], the “Effect on interaction between Upf1p and eRF3” value is “did not affect the interaction; also recorded: did not prevent association of Upf1p with eRF3”.

In the case of `NC[C@@H]1O[C@H](O[C@H]2[C@@H](O)[C@H](O[C@@H]3[C@@H](O)[C@H](N)C[C@H](N)[C@H]3O[C@H]3O[C@H](CO)[C@@H](O)[C@H](O)[C@H]3N)O[C@@H]2CO)[C@H](N)[C@@H](O)[C@@H]1O` [paromomycin], the “Paromomycin sensitivity (hypersensitivity)” value in assay [2] (upf1Δ or upf2Δ strains) was “Neither the upf1Δ or upf2Δ strains demonstrate hypersensitivity”. Moreover, in assay [2] (upf3Δ strain vs isogenic wild-type, disc containing 1 mg of paromomycin), the “Paromomycin sensitivity (zone of growth inhibition)” value is listed as “more sensitive to paromomycin than the isogenic wild-type strain”. The “β-galactosidase activity (−1 frameshift reporter)” value in assay [3] (upf3Δ cells carrying pF8, liquid media, different concentrations of the drug) is on record as “increased continuously with increased concentrations of paromomycin”. The β-galactosidase activity result in assay [3] (wild-type cells containing pF8, or any strain carrying pTI25 (zero frame control)) is “unaffected”.

B1: Upf1K436A: purified K436A form of the Upf1p, mutation of the conserved lysine residue in position 436 (protein, UniProt P30771 1-971, looked up, variant K436A)
ATP-dependent helicase NAM7: MVGSGSHTPYDISNSPSDVNVQPATQLNSTLVEDDDVDNQLFEEAQVTETGFRSPSASDNSCAYCGIDSAKCVIKCNSCKKWFCNTKNGTSSSHIVNHLVLSHHNVVSLHPDSDLGDTVLECYNCGRKNVFLLGFVSAKSEAVVVLLCRIPCAQTKNANWDTDQWQPLIEDRQLLSWVAEQPTEEEKLKARLITPSQISKLEAKWRSNKDATINDIDAPEEQEAIPPLLLRYQDAYEYQRSYGPLIKLEADYDKQLKESQALEHISVSWSLALNNRHLASFTLSTFESNELKVAIGDEMILWYSGMQHPDWEGRGYIVRLPNSFQDTFTLELKPSKTPPPTHLTTGFTAEFIWKGTSYDRMQDALKKFAIDKKSISGYLYYKILGHQVVDISFDVPLPKEFSIPNFAQLNSSQSNAVSHVLQRPLSLIQGPPGTGATVTSATIVYHLSKIHKDRILVCAPSNVAVDHLAAKLRDLGLKVVRLTAKSREDVESSVSNLALHNLVGRGAKGELKNLLKLKDEVGELSASDTKRFVKLVRKTEAEILNKADVVCCTCVGAGDKRLDTKFRTVLIDESTQASEPECLIPIVKGAKQVILVGDHQQLGPVILERKAADAGLKQSLFERLISLGHVPIRLEVQYRMNPYLSEFPSNMFYEGSLQNGVTIEQRTVPNSKFPWPIRGIPMMFWANYGREEISANGTSFLNRIEAMNCERIITKLFRDGVKPEQIGVITPYEGQRAYILQYMQMNGSLDKDLYIKVEVASVDAFQGREKDYIILSCVRANEQQAIGFLRDPRRLNVGLTRAKYGLVILGNPRSLARNTLWNHLLIHFREKGCLVEGTLDNLQLCTVQLVRPQPRKTERPMNAQFNVESEMGDFPKFQDFDAQSMVSFSGQIGDFGNAFVDNTELSSYINNEYWNFENFKSAFSQKQNRNEIDDRNLYQEEASHLNSNFARELQREEQKHELSKDFSNLGI
On to B1, for which the “Reduction of interaction with eRF1 relative to wild-type Upf1” value in assay [4] was in the range of 4 to 6 fold. In addition, the “Interaction with eRF3 relative to wild-type Upf1p” value in assay [5] is reported as “equivalent affinity as the wild-type Upf1p”.
